Where “and” joins values, the source holds several entries; their conditions need not be identical. Equal entries are not always repeated.
Legend:
[1] = tested on: MIA PaCa-2 cells; test: In vitro cytotoxicity (MTS, 72 h) MIA PaCa-2; assay type: cell-based, human; settings: 72 h incubation, Dox Equiv. concentration
Description: (§1) In vitro cytotoxicity C26 murine colon carcinoma cells and three different pancreatic cancer cell lines, BxPC-3, AsPC-1, and MIA PaCa-2, were used to study the in vitro cytotoxicity of ABD-DOX and Dox. Cells were cultured and grown as monolayers at 37° C. with C02 in a humidified incubator and were passaged at ˜80% confluency using 0.05% trypsin-EDTA (Invitrogen, Carlsbad, CA). C26, BxPC-3, AsPC-1, and MIA PaCa-2 cells were seeded in 96-well plates (5,000 cells/well) and incubated overnight. Three-fold serial dilutions of drug were then added to the wells in triplicate and also to control wells (media with no cells) to correct for the background Dox absorbance. After 72 h treatment, 20 μL MTS reagent was added to each well and was incubated for 3 h at 37° C., and the absorbance at 490 nm was measured using a Victor3 plate reader (Perkin Elmer, Boston, MA). Cell viability (%) was defined as the percentage of the absorbance of the drug-treated cells relative to buffer-treated cells and IC50 values were determined using logistic non-linear regression analysis with GraphPad Prism software. The IC50 was defined as the Dox Equiv. concentration of formulations resulting in 50% growth inhibition compared with a negative control, buffer-treated cells.

[2] = tested on: MIA PaCa-2 pancreatic tumor xenografts; test: In vivo tumor regression, MIA PaCa-2 xenograft model; set-up: species or system nude BALB/c mice
Description: In vivo tumor regression For in vivo tumor implantation, C26 cells at 5×10^5 cells in 30 μL Minimum Essential Medium (MEM) (Invitrogen, Carlsbad, CA) and MIA PaCa-2 cells at 2×10^6 cells in 50 μL 10:90 v/v MEM: Matrigel matrix (Corning Inc, Corning, New York) were inoculated in the right flank of normal and athymic nude BALB/c mice, respectively. Tumor cells were allowed to grow until the tumor volume, calculated as π/6×length×width^2, reached 75-100 mm^3 for C26 tumors and 100-125 mm^3 for MIA PaCa-2 tumors. Tumor bearing mice were then treated with ABD-Dox at 10 and 20 mg Dox Equiv.kg^−1 BW, AlDox at 20 mg Dox Equiv.kg^−1 BW, and free Dox at 10 mgkg^−1 BW. Tumor volumes and body weights were monitored for 100 days after treatment and mice displaying excessive tumor volume (>[…]), body weight loss (>15%), or ill health were euthanized. Tumor growth and survival data were analyzed by GraphPad Prism software. Survival curves were generated with the Kaplan-Meier method and compared with the log-rank (Mantel-Cox) test. Tumor growth data were compared with a paired one-way ANOVA followed by Tukey-Kramer (Tukey's) post-hoc test. P<0.05 was considered as statistically significant.
For in vivo tumor regression studies, a single dose of ABD-Dox was injected via tail vein at 10 mg Dox Equiv.kg^−1 BW (MTD of free Dox) and 20 mg Dox Equiv.kg^−1 BW (MTD of ABD-Dox) in separate cohorts of BALB/c mice with s.c. C26 tumors or nude mice with s.c. MIA Paca-2 tumors. Free Dox was injected at its MTD of 10 mgkg-1 BW, and AlDox was injected at 20 mg Dox Equiv.kg^−1 BW, a dose that was reported to be safe in previous studies. All animals were injected when the tumors were 75-100 mm; in size for C26 tumors and 100-125 mm^3 for MIA PaCa-2 tumors.

[3] = Intravenous pharmacokinetics in healthy BALB/c mice
Description: Pharmacokinetics and biodistribution Pharmacokinetics and biodistribution experiments were performed to study the concentration of ABD-Dox in blood and tissues over time following intravenous (i.v.) administration. For the pharmacokinetic study, ABD-Dox and Dox in PBS and AlDox in 10 mM sodium phosphate, 5% D-(+)-glucose, pH 5.8 were injected at 5 mg Dox Equiv. per kg of body weight (BW) into healthy BALB/c mice. 10 μL blood samples were collected at 40 s, 15 min and 30 min, and 2, 4, 8, 24, 48, 72 and 96 h post injection and were diluted into heparinized PBS (1 kUmL^−1), and centrifuged at 4,000 rcf, 10 min, 4° C. to collect the plasma. 10 μL of the plasma samples were then diluted in 490 μL of acidified isopropanol (0.075 M HCl, 10% water) and incubated overnight at 4° C. For the biodistribution study, ABD-Dox and Dox in PBS were injected at 5 mg Dox Equiv.kg^−1 BW into C26 tumor-bearing BALB/c mice. At 2 h, 24 h, and 72 h post-injection, mice were sacrificed and tumor, heart, lung, liver, spleen, kidney and muscle tissues were dissected, weighed, homogenized in acidified isopropanol using a Mini-Beadbeater (Biospec, Bartlesville, OK) with 2 mm diameter zirconia beads for 1-2 min, and were incubated overnight at 4° C. Following overnight incubation in acidified isopropanol, plasma and tissue samples were centrifuged at 16,000 rcf, 4° C. for 10 min and the supernatants were loaded onto black 96-well plates in duplicate and the Dox fluorescence was measured using on a Victor3 microplate reader (Perkin Elmer, Waltham, MA) with fluorescence excitation at 485 nm and emission at 590 nm. Tissues were also dissected from three untreated mice, processed in the same manner, serially diluted, and loaded on the plates to prepare a standard curve of fluorescence intensity versus the weight for each tissue from which the background tissue fluorescence was calculated and subtracted for each sample. Serial dilution of free Dox in acidified isopropanol was used as standard to quantify the Dox concentration as […] per liter of plasma (μM) and as the percent of the injected dose per gram (% ID g^−1) in the tumor and other tissues. Plasma concentrations of Dox Equiv. of ABD-Dox versus time were fit to a two-compartment model using SAAM II software (SAAM Institute, Seattle, WA) and the elimination half-life and the area-under-curve were computed. The tissue concentration of Dox. Equiv. of ABD-Dox and free Dox at each time point were compared in GraphPad Prism software (GraphPad, San Diego, CA) by Student's t-test with P<0.05 considered statistically significant.

[4] = tested on: C26 murine colon carcinoma cells; test: In vitro cytotoxicity (MTS, 72 h) C26; assay type: cell-based
Description: as §1

ABD-Dox (GLAEAKVLANRELDKYGVSDYYKNLINNAKTVEGVKALIDEILAALPCGGCGGCGGCGG)
IC50 [1]: 1.4 µM and 1.41 µM
survival compared with free Dox ([2]; 10 mg Dox Equiv.kg^−1 BW): No significant difference
survival compared with AlDox ([2]; 20 mg Dox Equiv.kg^−1 BW): No significant difference
survival compared with free Dox ([2]; 20 mg Dox Equiv.kg^−1 BW): significantly longer survival
tumor regression compared with AlDox ([2]; 20 mg Dox Equiv.kg^−1 BW): superior tumor regression efficacy
tumor-free period compared with AlDox ([2]; 20 mg Dox Equiv.kg^−1 BW, 100-day span): longer tumor-free period
mice showing tumor disappearance ([2]; by day 15 after treatment, 20 mg Dox Equiv.kg^−1 BW): all
tumor recurrence in tumor-eradicated mice ([2]; throughout the 100 day course of study, 20 mg Dox Equiv.kg^−1 BW): 25%
drug in plasma at late time point ([3]; 96 h after injection): detectable in plasma even 96 h after injection
Area under curve (total plasma exposure) ([3]; i.v., 5 mg Dox Equiv. per kg BW, plasma): 2263.6 ± 44.7 µM·h
Elimination half-life ([3]; i.v., 5 mg Dox Equiv. per kg BW, plasma, two-compartment model): 29.4 ± 0.8 h and 29.4 h
area under the curve, fold higher than AlDox ([3]; mouse, in vivo): 3 fold
IC50 ([4]; 72 h incubation, Dox Equiv. concentration): 6.4 µM and 6.43 µM
in vitro cytotoxicity, fold lower than free Dox ([4]; C26 and MIA PaCa-2 cells): 10-30 fold

From patent US12296018B2, “Albumin binding peptide-drug (AlBiPeD) conjugates and methods of making and using same” (priority 2018, dated 2025)
